Measurements: patent US20210002232A1, “HETEROCYCLIC COMPOUNDS AS FUNGICIDES” (PI INDUSTRIES LTD., priority 2018, published 2021)

System: Pyricularia oryzae
Assay: microbe, parasite or virus in culture
Format: cell-based
Settings: 168 h, read-out: control

Structure (SMILES) | inhibition of growth at 300 ppm [%]
CS(=O)(=NC(=O)c1ccc(-c2coc(C(F)(F)F)n2)cc1)c1ccccc1F (centres unmarked) [Compound 84, N-((2-fluorophenyl)(methyl)(oxo)-λ^6-sulfaneylidene)-4-(2-(trifluoromethyl)oxazol-4-yl)benzamide] | > 70
CN(CCOc1ccccc1)C(=O)c1ccc(-c2noc(C(F)F)n2)cc1 [Compound 17, 4-(5-(difluoromethyl)-1,2,4-oxadiazol-3-yl)-N-methyl-N-(2-phenoxyethyl)benzamide] | > 70
CS(=O)(=NCc1ccc(-c2nc(C(F)F)n[nH]2)cc1)c1ccccc1 (centres unmarked) [Compound 42, ((4-(3-(difluoromethyl)-1h-1,2,4-triazol-5-yl)benzyl)imino)(methyl)(phenyl)-λ^6-sulfanone] | > 70
CS(=O)(=NCc1ccc(C2=NOC(C(F)F)N2)cc1)c1ccccc1 (centres unmarked) [Compound 27, ((4-(5-(difluoromethyl)-4,5-dihydro-1,2,4-oxadiazol-3-yl)benzyl)imino)(methyl)(phenyl)-λ^6-sulfanone] | > 70
CS(=O)(=NC(=O)c1ccc(C2=NOC(C(F)(F)F)N2)cc1)c1ccc(Cl)cc1 (centres unmarked) [Compound 1, N-((4-chlorophenyl)(methyl)(oxo)-λ^6-sulfaneylidene)-4-(5-(trifluoromethyl)-4,5-dihydro-1,2,4-oxadiazol-3-yl)benzamide] | > 70

System: Phakopsora pachyrhizi
Assay: Phakopsora pachyrhizi test in soybean, preventive spray in greenhouse
Format: in vivo
Settings: preventive spray on soybean plants, inoculated one day after treatment, compared to the untreated check, read-out: control (efficacy from disease severity rating)

Structure (SMILES) | pest or weed control at 500 ppm [%]
COc1ccc(S(C)(=O)=NC(=O)c2ccc(C3=NOC(C(F)(F)F)N3)cc2)cc1 (centres unmarked) [Compound 25, N-((4-methoxyphenyl)(methyl)(oxo)-λ^6-sulfaneylidene)-4-(5-(trifluoromethyl)-4,5-dihydro-1,2,4-oxadiazol-3-yl)benzamide] | > 90
CS(=O)(=NCc1ccc(-c2n[nH]c(C(F)(F)F)n2)cc1)c1cccnc1 (centres unmarked) [Compound 47, Methyl(pyridin-3-yl)((4-(5-(trifluoromethyl)-1h-1,2,4-triazol-3-yl)benzyl)imino)-λ^6-sulfanone] | > 90
CS(=O)(=NC(=O)c1ccc(-c2nc(C(F)(F)F)oc2Cl)cc1)c1ccccc1 (centres unmarked) [Compound 74, 4-(5-chloro-2-(trifluoromethyl)oxazol-4-yl)-N-(methyl(oxo)(phenyl)-λ^6-sulfaneylidene)benzamide] | > 90
CS(=O)(=NC(=O)c1ccc(-c2coc(C(F)(F)F)n2)cc1)c1ccccc1 (centres unmarked) [Compound 83, N-(methyl(oxo)(phenyl)-λ^6-sulfaneylidene)-4-(2-(trifluoromethyl)oxazol-4-yl)benzamide] | > 90
O=C(Cc1ccccc1)Nc1ccc(C2=NOC(C(F)(F)F)N2)cc1 (centres unmarked) [Compound 23, 2-phenyl-N-(4-(5-(trifluoromethyl)-4,5-dihydro-1,2,4-oxadiazol-3-yl)phenyl)acetamide] | > 90
CS(=O)(=Nc1ccc(-c2n[nH]c(C(F)(F)F)n2)cc1)c1ccc(C(F)(F)F)cc1 (centres unmarked) [Compound 40, Methyl((4-(5-(trifluoromethyl)-1h-1,2,4-triazol-3-yl)phenyl)imino)(4-(trifluoromethyl)phenyl)-λ^6-sulfanone] | > 90
O=C(Nc1ccc(Cl)cc1F)c1ccc(C2=NOC(C(F)(F)F)N2)cc1 (centres unmarked) [Compound 29, N-(4-chloro-2-fluorophenyl)-4-(5-(trifluoromethyl)-4,5-dihydro-1,2,4-oxadiazol-3-yl)benzamide] | > 90
CN(Cc1ccc(C2=NOC(C(F)(F)F)N2)cc1)C(=O)C1CC1 (centres unmarked) [Compound 21, N-methyl-N-(4-(5-(trifluoromethyl)-4,5-dihydro-1,2,4-oxadiazol-3-yl)benzyl)cyclopropanecarboxamide] | > 90
Cn1nc(C(F)(F)F)nc1-c1ccc(S(=O)(=O)c2ccccc2)cc1 [Compound 34, 1-methyl-5-(4-(phenylsulfonyl)phenyl)-3-(trifluoromethyl)-1h-1,2,4-triazole] | > 90
CC(C)(C)C(=O)NCc1ccc(-c2n[nH]c(C(F)(F)F)n2)cc1 [Compound 3, N-(4-(5-(trifluoromethyl)-1h-1,2,4-triazol-3-yl)benzyl)pivalamide] | > 90
CN(CCOc1ccccc1)C(=O)c1ccc(-c2cc(C(F)(F)F)on2)cc1 [Compound 65, N-methyl-N-(2-phenoxyethyl)-4-(5-(trifluoromethyl)isoxazol-3-yl)benzamide] | > 90
CS(=O)(=NC(=O)c1ccc(C2=NOC(C(F)(F)F)N2)cc1)c1ccc(Cl)cc1 (centres unmarked) [Compound 1, N-((4-chlorophenyl)(methyl)(oxo)-λ^6-sulfaneylidene)-4-(5-(trifluoromethyl)-4,5-dihydro-1,2,4-oxadiazol-3-yl)benzamide] | > 90
O=C(Nc1ccc(F)cc1F)c1ccc(-c2nc(C(F)(F)F)n[nH]2)cc1 [Compound 44, N-(2,4-difluorophenyl)-4-(3-(trifluoromethyl)-1h-1,2,4-triazol-5-yl)benzamide] | > 90
O=C(Nc1c(F)cccc1F)c1ccc(-c2coc(C(F)(F)F)n2)cc1 [Compound 80, N-(2,6-difluorophenyl)-4-(2-(trifluoromethyl)oxazol-4-yl)benzamide] | > 90
CN(CCOc1ccccc1)C(=O)c1ccc(-c2nc(C(F)(F)F)oc2Cl)cc1 [Compound 71, 4-(5-chloro-2-(trifluoromethyl)oxazol-4-yl)-N-methyl-N-(2-phenoxyethyl)benzamide] | > 90
O=C(Nc1ccc(F)cc1F)c1ccc(-c2nc(C(F)(F)F)oc2Cl)cc1 [Compound 70, 4-(5-chloro-2-(trifluoromethyl)oxazol-4-yl)-N-(2,4-difluorophenyl)benzamide] | > 90
CS(=O)(=NC(=O)c1ccc(-c2coc(C(F)(F)F)n2)cc1)c1ccc(F)cc1 (centres unmarked) [Compound 69, N-((4-fluorophenyl)(methyl)(oxo)-λ^6-sulfaneylidene)-4-(2-(trifluoromethyl)oxazol-4-yl)benzamide] | > 90
CN(Cc1ccc(C2=NOC(C(F)(F)F)N2)cc1)C(=O)C1CCC1 (centres unmarked) [Compound 22, N-methyl-N-(4-(5-(trifluoromethyl)-4,5-dihydro-1,2,4-oxadiazol-3-yl)benzyl)cyclobutanecarboxamide] | > 90
CC(C(=O)Nc1ccc(C2=NOC(C(F)(F)F)N2)cc1)c1ccccc1 (centres unmarked) [Compound 20, 2-phenyl-N-(4-(5-(trifluoromethyl)-4,5-dihydro-1,2,4-oxadiazol-3-yl)phenyl)propanamide] | > 90
COc1ccc(S(C)(=O)=Nc2ccc(-c3n[nH]c(C(F)(F)F)n3)cc2)cc1 (centres unmarked) [Compound 43, (4-methyoxyphenyl)(methyl)((4-(5-(trifluoromethyl)-1h-1,2,4-triazol-3-yl)phenyl)imino)-λ^6-sulfanone] | > 90
O=C(Nc1ccc(F)cc1F)c1ccc(-c2cc(C(F)(F)F)on2)cc1 [Compound 57, N-(2,4-difluorophenyl)-4-(5-(trifluoromethyl)isoxazol-3-yl)benzamide] | > 90
O=C(Nc1ccc(F)cc1F)c1ccc(-c2coc(C(F)(F)F)n2)cc1 [Compound 77, N-(2,4-difluorophenyl)-4-(2-(trifluoromethyl)oxazol-4-yl)benzamide] | > 90
CS(=O)(=NC(=O)c1ccc(-c2coc(C(F)(F)F)n2)cc1)c1ccc(Cl)cc1 (centres unmarked) [Compound 72, N-((4-chlorophenyl)(methyl)(oxo)-λ^6-sulfaneylidene)-4-(2-(trifluoromethyl)oxazol-4-yl)benzamide] | > 90
O=C(O)c1ccc(-c2cc(C(F)(F)F)on2)cc1 [Compound 56, 4-(5-(trifluoromethyl)isoxazol-3-yl)benzoic acid] | > 90
CS(=O)(=NC(=O)c1ccc(-c2cc(C(F)(F)F)on2)cc1)c1ccccc1 (centres unmarked) [Compound 66, N-(methyl(oxo)(phenyl)-λ^6-sulfaneylidene)-4-(5-(trifluoromethyl)isoxazol-3-yl)benzamide] | > 90

System: Alternaria solani
Assay: Alternaria solani (early blight of tomato/potato) mycelial radial growth on Potato Dextrose Agar
Settings: 168 h, read-out: control
Description: Compounds were dissolved in 0.3% DMSO & then added to Potato Dextrose Agar medium just prior to dispensing it into Petri dishes. 5 ml medium with compound in the desired concentration was dispensed into 60 mm sterile petri-plates. After solidification each plate was seeded with 5 mm size mycelial disc taken form periphery of actively growing virulent culture plate. Plates were incubated in growth chambers at 25° C. temperature and 60% relative humidity for seven days and radial growth was measured.

Structure (SMILES) | inhibition of growth at 300 ppm [%]
COc1ccc(S(C)(=O)=NC(=O)c2ccc(C3=NOC(C(F)(F)F)N3)cc2)cc1 (centres unmarked) [Compound 25, N-((4-methoxyphenyl)(methyl)(oxo)-λ^6-sulfaneylidene)-4-(5-(trifluoromethyl)-4,5-dihydro-1,2,4-oxadiazol-3-yl)benzamide] | > 70
CS(=O)(=NC(=O)c1ccc(-c2coc(C(F)(F)F)n2)cc1)c1ccccc1F (centres unmarked) [Compound 84, N-((2-fluorophenyl)(methyl)(oxo)-λ^6-sulfaneylidene)-4-(2-(trifluoromethyl)oxazol-4-yl)benzamide] | > 70
COc1ccc(S(C)(=O)=NC(=O)c2ccc(-c3coc(C(F)(F)F)n3)cc2)cc1 (centres unmarked) [Compound 78, N-((4-methoxyphenyl)(methyl)(oxo)-λ^6-sulfaneylidene)-4-(2-(trifluoromethyl)oxazol-4-yl)benzamide] | > 70
CS(=O)(=Nc1ccc(C2=NOC(C(F)(F)F)N2)cc1)c1ccc(C(F)(F)F)cc1 (centres unmarked) [Compound 26, Methyl((4-(5-(trifluoromethyl)-4,5-dihydro-1,2,4-oxadiazol-3-yl)phenyl)imino)(4-(trifluoromethyl)phenyl)-λ^6-sulfanone] | > 70
CN(Cc1ccc(-c2n[nH]c(C(F)(F)F)n2)cc1)C(=O)C1CCC1 [Compound 38, N-methyl-N-(4-(5-(trifluoromethyl)-1h-1,2,4-triazol-3-yl)benzyl)cyclobutanecarboxamide] | > 70
CS(=O)(=NC(=O)c1ccc(-c2cc(C(F)(F)F)on2)cc1)c1ccccn1 (centres unmarked) [Compound 62, N-(methyl(oxo)(pyridin-2-yl)-λ^6-sulfaneylidene)-4-(5-(trifluoromethyl)isoxazol-3-yl)benzamide] | > 70
O=C(Nc1ccccc1)c1ccc(-c2coc(C(F)(F)F)n2)cc1 [Compound 81, N-phenyl-4-(2-(trifluoromethyl)oxazol-4-yl)benzamide] | > 70
CN(Cc1ccc(-c2n[nH]c(C(F)(F)F)n2)cc1)C(=O)C1CC1 [Compound 37, N-methyl-N-(4-(5-(trifluoromethyl)-1h-1,2,4-triazol-3-yl)benzyl)cyclopropanecarboxamide] | > 70
O=C(Cc1ccccc1)Nc1ccc(-c2noc(C(F)F)n2)cc1 [Compound 31, N-(4-(5-(difluoromethyl)-1,2,4-oxadiazol-3-yl)phenyl)-2-phenylacetamide] | > 70
O=C(O)c1ccc(-c2cc(C(F)(F)F)on2)cc1 [Compound 56, 4-(5-(trifluoromethyl)isoxazol-3-yl)benzoic acid] | > 70
CN(CCOc1ccccc1)C(=O)c1ccc(-c2n[nH]c(C(F)(F)F)n2)cc1 [Compound 11, N-methyl-N-(2-phenoxyethyl)-4-(5-(trifluoromethyl)-1h-1,2,4-triazol-3-yl)benzamide] | > 70
